Experimental data published in article PMC9709406 (Frontiers in Pharmacology, 2022).
Where two headings read alike, the source gives them in different places.

Columns and labels:
SHEE cells = assay: MTT assay, normal esophageal epithelial cell line SHEE; type: cell-based; conditions: Homo sapiens, 48 h, n = 5
Description: (§1) The human cancer cells (H1650, H1975, KYSE70, KYSE410 and KYSE450) were purchased from the Type Culture Collection of the Chinese Academy of Sciences (Shanghai, China). The human immortalized normal esophageal epithelial cell line SHEE was donated by Dr. Enmin Li from the Laboratory of Tumor Pathology (Shantou University Medical College, Shantou, Guangdong, China). Drug-resistant cells (H1650TR, H1975OR, KYSE70TR, KYSE410TR and KYSE450TR) were induced by China-US (Henan) Hormel Cancer Institute. The cellswere cultured in RPMI-1640 complete growth medium containing 100 U/mL penicillin-streptomycin and 10% FBS. Based on the above medium formula, 100 nm/L paclitaxel was added in taxol-resistant cells, 100 nm/L gefitinib was added in gefitinib-resistant cells. The cells were incubated at 37 °C in an atmosphere containing 5% of CO2. The compounds were dissolved in DMSO to make a 50 mM stock solution and were diluted to the concentration of working solutions with complete growth medium before administration.
(§2) Cells were seeded in 96-well plates with 2,200–2,500 cells/well in100 μL. One day after seeding, test compounds with the concentration between 0 and 50 μM were added with 0.1% DMSO as control. Five multiple wells for each concentration. After 48 h, MTT was added and incubated in the plate for 1–4 h in the incubator. The absorbance at 490 nm was measured using a microplate reader (Thermo).

H1650 cells = assay: MTT assay for cell proliferation and cytotoxicity, H1650; type: cell-based; conditions: Homo sapiens, NCI-H1650, 48 h, H1650, n = 5
Description: as §1, §2

KYSE450 cells = assay: MTT assay, KYSE450; type: cell-based, human; conditions: Homo sapiens, KYSE-450; MTT, 48 h, KYSE450, n = 5; read-out: IC50 48 h KYSE450
Description: as §1, §2

KYSE410 cells = assay: MTT assay, KYSE410; type: cell-based, human; conditions: Homo sapiens, 48 h
Description: as §1, §2

KYSE70 cells = assay: MTT assay, KYSE70; type: cell-based, human; conditions: Homo sapiens, KYSE-70; MTT, 48 h, KYSE70, n = 5
Description: as §1, §2

H1975 cells = assay: MTT assay for cell proliferation and cytotoxicity, H1975; type: cell-based, human; conditions: Homo sapiens, NCI-H1975, 48 h, MTT, 48 h, H1975, n = 5; read-out: IC50 48 h H1975
Description: as §1
as §2, with “After 48 h, MTT was added and incubated in the plate for 1–4 h in the incubator.” left out

KYSE410TR cells = assay: MTT assay, taxol-resistant KYSE410TR; type: cell-based, human; conditions: Homo sapiens, KYSE 410 TR, MTT, resistance-inducing drug (taxol)
Description: as §1
as §2, with “After 48 h, MTT was added and incubated in the plate for 1–4 h in the incubator.” left out

KYSE70TR cells = assay: MTT assay, taxol-resistant KYSE70TR; type: cell-based, human; conditions: Homo sapiens, KYSE 70 TR, MTT, resistance-inducing drug (taxol)
Description: as §1
as §2, with “After 48 h, MTT was added and incubated in the plate for 1–4 h in the incubator.” left out

KYSE450TR cells = assay: MTT assay, taxol-resistant KYSE450TR; type: cell-based, human; conditions: Homo sapiens, KYSE 450 TR, MTT, resistance-inducing drug (taxol)
Description: as §1
as §2, with “After 48 h, MTT was added and incubated in the plate for 1–4 h in the incubator.” left out

[1] = KYSE-410, MTT, KYSE410, n = 5, read-out: IC50 48 h KYSE410

SMILES	IC50 (SHEE cells)	IC50 (H1650 cells)	IC50 (KYSE450 cells)	IC50 (KYSE410 cells; [1])	melting point	IC50 (KYSE70 cells)	IC50 (H1975 cells)	IC50 (KYSE410TR cells; 24 h, read-out: 24 h IC50)	IC50 (KYSE410TR cells; 48 h, read-out: 48 h IC50)	IC50 (KYSE410 cells; KYSE 410, MTT, resistance-inducing drug (taxol), read-out: 48 h IC50)	IC50 (KYSE70TR cells; 24 h, read-out: 24 h IC50)	IC50 (KYSE70TR cells; 48 h, read-out: 48 h IC50)	IC50 (KYSE450TR cells; 24 h, read-out: 24 h IC50)	IC50 (KYSE450TR cells; 48 h, read-out: 48 h IC50)
Fc1cccc(-n2cc(-c3cccc(Nc4ncnc5cc6c(cc45)OCCOCCOCCO6)c3)nn2)c1 [compound 3a]	12.1 ± 0.97 µM	15.6 ± 1.02 µM	7.24 ± 0.65 µM	48.6 ± 2.16 µM	123 to 126 °C	10.2 ± 0.88 µM	9.87 ± 0.88 µM							
CC(=O)O[C@H]1C(=O)[C@@]2(C)[C@H]([C@H](OC(=O)c3ccccc3)[C@]3(O)C[C@H](OC(=O)[C@H](O)[C@@H](NC(=O)c4ccccc4)c4ccccc4)C(C)=C1C3(C)C)[C@]1(OC(C)=O)CO[C@@H]1C[C@@H]2O [taxol, reference compound]								6.4 ± 0.43 µM	1.71 ± 0.05 µM	0.0524 ± 0.00345 µM	4.92 ± 0.274 µM	1.12 ± 0.0352 µM	0.266 ± 0.0661 µM	0.12 ± 0.0301 µM
c1ccc(-n2cc(-c3cccc(Nc4ncnc5cc6c(cc45)OCCOCCOCCO6)c3)nn2)cc1 [compound 3f]	> 50 µM	12.3 ± 0.91 µM	45 ± 2.53 µM	> 50 µM	148 to 150 °C	25 ± 1.53 µM	> 50 µM							
Fc1ccccc1Cn1cc(-c2cccc(Nc3ncnc4cc5c(cc34)OCCOCCOCCO5)c2)nn1 [compound 3m]	> 50 µM	> 50 µM	> 50 µM	> 50 µM	118 to 121 °C	> 50 µM	47.3 ± 2.01 µM							
